Source: patent US20190225643A1, “NOVEL NUCLEOSIDE ANALOGS AND USE THEREOF IN THERAPEUTIC TREATMENT” (CORNELL UNIVERSITY, priority 2016, published 2019)

Columns and labels:
[1] = system: 6-ETI-resistant BC3 clones and xenograft cell lines 2-3 low and 3-5 low; assay: Viability assay in 6-ETI-resistant BC3-derived cell lines; type: cell-based
Procedure: To generate 6-ETI resistant clones, BC3 cells were plated in RPMI-1640 with 50 μg/mL Gentamicin and 20% FBS under 6-ETI selection in multiple 96-well plates at 1*10^5 cells/mL. Selection was begun at 15 nM, 30 nM, or 60 nM 6-ETI. Cells were split every three days, with the dose of 6-ETI doubled at least 1×/week. Selection continued until a few clonal populations remained, after which the clones were expanded into fresh plates under selection with 10 μM 6-ETI. Clones retrieved were designated NSCE-1, NSCE-2, NSCE-3, NSCE-4, NSCE-5, NSCE-6, NSCE-7, NSCE-8, in chronological order of selection from the original plates.
The ascites from these mice were harvested ex vivo, and following Ficoll extraction, placed in culture in RPMI-1640 with 10% FBS.

[2] = system: normal plasma cells (CD19-, CD138+) from human tonsils; assay: Toxicity on normal primary tonsillar lymphocytes; type: cell-based; conditions: 1 μM and 10 μM, 24 hours
Procedure: Primary human tonsil specimens were obtained from the Weill Cornell/New York Presbyterian Institutional Biobank. Lymphocytes were isolated from human tonsil tissue by dissection and maceration in RPMI media. Lymphocyte-containing media was passed through a 70 μm filter and pelleted at 400 g for 7 minutes. RBC were lysed for 5 minutes in RBC lysing solution (0.15M ammonium chloride, 10 mM potassium bicarbonate, […]). After dilution to 50 ml with RPMI, lymphocytes were filtered through a […] filter, counted and pelleted a second time. Total B cells were isolated using magnetic cell sorting according to manufacturer instructions (Miltenyi Cat#130-091-151). Cells were plated at 2 million cells/ml in RPMI with 20% FBS and 100 μg/ml Primocin (Invivogen) and laid over gamma-irradiated CDW32 feeder cells. Cells were then treated with DMSO, 1 μM or 10 μM 6-ETI for 24 hrs. […] Data was acquired on a BD LSR2 Flow Cytometer and analyzed using FlowJo software. The frequency of plasma cells was assessed based on singlet-gated cells expressing CD138.

[3] = system: CAG-luc multiple myeloma xenograft; assay: Disseminated multiple myeloma xenograft model; type: in vivo, mouse
Procedure: For the disseminated multiple myeloma xenograft model, CAG cells were kindly provided by Dr. Malcolm Moore lab at MSKCC. 1×10^7 of CAG cells stably expressing the HSV-TK-eGFP-luciferase fusion protein were injected intravenously into NOD/SCID (NOD/LTSZPrko/J, the Jackson Laboratory Stock# 001303). Eight days after tumor induction, mice were randomized into control and treated cohorts and treated intraperitoneally with either PBS 0.05% tween 80 (vehicle) or 200 mg/kg of 6-ETI daily for 9 days. Tumor mass or bioluminescence (photons/s/cm^2/steradian) was evaluated by imaging the mice using IVIS Imaging system. Statistical analysis was done using a two-tailed, unpaired Student's t-test using GraphPad prism.

Structure (SMILES): CCSc1ncnc2c1ncn2[C@@H]1O[C@H](CO)C(O)[C@@H]1O (stereo partly drawn) [Compound 6-ETI, 6-ethylthioinosine]
- CC50 ([1]; Homo sapiens, xenograft cell lines 2-3 low and 3-5 low after selection with 10 μM 6-ETI, read-out: LC50 (the source's name)): > 100 µM
- resistance of selected clones ([1]; clones NSCE-1, -2, -3, -6, -7, -8): fully resistant
- total number or proportion of normal plasma cells [2]: did not find a decrease in the total number or proportion of plasma cells
- tumor burden (bioluminescent signal) ([3]; 200 mg/kg/day i.p. for 9 days): significant reduction in tumor burden
- weight loss ([3]; 200 mg/kg/day i.p. for 9 days): without any weight loss
- overall survival ([3]; 200 mg/kg/day, P<0.005): significantly prolonged
